According to ChEMBL document CHEMBL1122521, “Nucleic acid related compounds. 47. Synthesis and biological activities of pyrimidine and purine "acyclic" nucleoside analogues” (J Med Chem, 1984):
Values after ≈ are worked out from the molar mass of the structure shown.

Experiments:
Type in all cases: functional
L1210 [1] = test: Inhibitory concentration required to reduce [3H1',2']dUrd incorporation into cellular DNA by 50% in Murine Leukemia L1210 cells; conditions: Mus musculus, read-out: ID50 (the source's name)
L1210 [2] = test: Inhibitory concentration required to reduce [3H-methyl]-dThd C incorporation into cellular DNA by 50% in Murine Leukemia L1210 cells; conditions: Mus musculus, read-out: ID50 (the source's name)
L1210 [3] = test: Inhibitory concentration required to reduce cell growth of Murine Leukemia L1210 cells; conditions: Mus musculus, read-out: ID50 (the source's name)
[4] = Inhibitory concentration required to reduce incorporation of 2-deoxyuridine (dUrd) into DNA of Primary Rabbit kidney (PRK) cell cultures; conditions: Oryctolagus cuniculus, read-out: ID50 (the source's name)
[5] = Ratio of ID50 for dThd or dUrd incorporation to ID50 for HSV-1, HSV-2 or VV(whatever was lowest)
Human alphaherpesvirus 2 = test: Concentration required to reduce cytopathogenicity of Herpes simplex virus type 2 (strain G) by 50% in primary rabbit kidney (PRK) cells
[6] = Inhibitory concentration required to reduce incorporation of 2-deoxythymidine (dThd) into DNA of Primary Rabbit kidney (PRK) cell cultures; conditions: Oryctolagus cuniculus, read-out: ID50 (the source's name)
Human alphaherpesvirus 1 = test: Concentration required to reduce cytopathogenicity of Herpes simplex virus type 1 (strain KOS) by 50% in primary rabbit kidney (PRK) cells
[7] = Inhibitory concentration required to reduce 2-deoxyuridine ([3H-1'2']dUrd) incorporation into DNA of Primary Rabbit kidney (PRK) cell cultures; conditions: Oryctolagus cuniculus, read-out: ID50 (the source's name)
[8] = tested on: Vesicular stomatitis virus; test: Concentration required to reduce cytopathogenicity of Vesicular stomatitis virus by 50% in primary rabbit kidney (PRK) cells
L1210 [9] = test: Inhibitory concentration required to reduce [3H1',2']dUrd incorporation into cellular DNA by 50 %; conditions: Mus musculus, read-out: ID50 (the source's name)
L1210 [10] = test: Inhibitory concentration required to reduce [14C-2]-dUrd incorporation into cellular DNA by 50% in Murine Leukemia L1210 cells; conditions: Mus musculus, read-out: ID50 (the source's name)

## CN(C)c1ncnc2c1ncn2COCCO
L1210 [1]
  IC50: > 500 mg/L
L1210 [2]
  IC50: > 500 mg/L
L1210 [3]
  IC50: > 500 mg/L
[4]
  IC50: > 350 mg/L
[5]
  Antiviral index: < 0.9
Human alphaherpesvirus 2
  ID50: >400 mg/L
[6]
  IC50: 400 mg/L (≈ 1690 µM)
Human alphaherpesvirus 1
  ID50: >400 mg/L

## O=c1[nH]c(=O)n(COCCO)cc1Cl
L1210 [1]
  IC50: > 1000 mg/L
L1210 [2]
  IC50: > 1000 mg/L
L1210 [3]
  IC50: > 1000 mg/L
[4]
  IC50: > 400 mg/L
Human alphaherpesvirus 2
  ID50: >400 mg/L
[6]
  IC50: > 400 mg/L
Human alphaherpesvirus 1
  ID50: >400 mg/L

## Nc1nc2c(nc(Cl)n2COCCO)c(=O)[nH]1
L1210 [1]
  IC50: > 1000 mg/L
L1210 [2]
  IC50: > 1000 mg/L
L1210 [3]
  IC50: 350 mg/L (≈ 1350 µM)
[5]
  Antiviral index: > 6
Human alphaherpesvirus 2
  ID50: >400 mg/L
[7]
  IC50: > 400 mg/L
[6]
  IC50: > 400 mg/L
Human alphaherpesvirus 1
  ID50: 70 mg/L (≈ 270 µM)

## Cc1cn(COCCO)c(=O)[nH]c1=O
L1210 [1]
  IC50: > 1000 mg/L
L1210 [2]
  IC50: > 1000 mg/L
L1210 [3]
  IC50: > 1000 mg/L
[4]
  IC50: > 400 mg/L
Human alphaherpesvirus 2
  ID50: >400 mg/L
[6]
  IC50: > 400 mg/L
Human alphaherpesvirus 1
  ID50: >400 mg/L

## Nc1nc(O)c2nc(N3CCCCC3)n(COCCO)c2n1
L1210 [1]
  IC50: > 500 mg/L
L1210 [2]
  IC50: > 500 mg/L
L1210 [3]
  IC50: > 500 mg/L
[4]
  IC50: 333 mg/L (≈ 1080 µM)
[5]
  Antiviral index: 3.5
Human alphaherpesvirus 2
  ID50: 150 mg/L (≈ 486 µM)
[8]
  ID50: >400 mg/L
[6]
  IC50: 250 mg/L (≈ 811 µM)
Human alphaherpesvirus 1
  ID50: 70 mg/L (≈ 227 µM)

## Nc1nc(=O)ccn1COCCO
L1210 [1]
  IC50: > 500 mg/L
L1210 [2]
  IC50: > 500 mg/L
L1210 [3]
  IC50: > 500 mg/L
[4]
  IC50: > 400 mg/L
Human alphaherpesvirus 2
  ID50: >400 mg/L
[6]
  IC50: > 400 mg/L
Human alphaherpesvirus 1
  ID50: >400 mg/L

## O=c1ccn(COCCO)c(=O)[nH]1
L1210 [1]
  IC50: > 1000 mg/L
L1210 [2]
  IC50: > 1000 mg/L
L1210 [3]
  IC50: > 1000 mg/L
[4]
  IC50: > 400 mg/L
Human alphaherpesvirus 2
  ID50: >400 mg/L
[6]
  IC50: > 400 mg/L
Human alphaherpesvirus 1
  ID50: >400 mg/L

## CNc1nc2c(=O)[nH]c(N)nc2n1COCCO
L1210 [2]
  IC50: > 500 mg/L
L1210 [3]
  IC50: > 500 mg/L
[4]
  IC50: > 400 mg/L
[5]
  Antiviral index: 133
Human alphaherpesvirus 2
  ID50: 3 mg/L (≈ 11.8 µM)
[8]
  ID50: >400 mg/L
[6]
  IC50: > 400 mg/L
Human alphaherpesvirus 1
  ID50: 7 mg/L (≈ 27.5 µM)
L1210 [9]
  IC50: > 500 mg/L

## O=c1[nH]c(=O)n(COCCO)cc1[N+](=O)[O-]
L1210 [1]
  IC50: > 1000 mg/L
L1210 [2]
  IC50: > 1000 mg/L
L1210 [3]
  IC50: 447 mg/L (≈ 1930 µM)
[4]
  IC50: > 400 mg/L
Human alphaherpesvirus 2
  ID50: >400 mg/L
[6]
  IC50: > 400 mg/L
Human alphaherpesvirus 1
  ID50: >400 mg/L

## CC(=O)OCCOCn1cnc2c(Cl)nc(N)nc21
L1210 [1]
  IC50: > 1000 mg/L
L1210 [2]
  IC50: > 1000 mg/L
L1210 [3]
  IC50: 91 mg/L (≈ 319 µM)
[5]
  Antiviral index: 2.7
Human alphaherpesvirus 2
  ID50: 20 mg/L (≈ 70 µM)
[7]
  IC50: 71 mg/L (≈ 249 µM)
[8]
  ID50: >400 mg/L
[6]
  IC50: 55 mg/L (≈ 193 µM)
Human alphaherpesvirus 1
  ID50: 20 mg/L (≈ 70 µM)

## Nc1nc2c(nc(O)n2COCCO)c(=O)[nH]1
L1210 [2]
  IC50: > 500 mg/L
L1210 [3]
  IC50: > 500 mg/L
[5]
  Antiviral index: 3.2
Human alphaherpesvirus 2
  ID50: 25 mg/L (≈ 104 µM)
[7]
  IC50: ≥ 100 mg/L
[8]
  ID50: >400 mg/L
[6]
  IC50: 48 mg/L (≈ 199 µM)
Human alphaherpesvirus 1
  ID50: 15 mg/L (≈ 62.2 µM)
L1210 [9]
  IC50: > 500 mg/L

## O=c1[nH]c(=O)n([C@H]2C[C@H](O)[C@@H](CO)O2)cc1/C=C/Br [BRIVUDINE]
[4]
  IC50: 27 mg/L (≈ 81 µM)
[5]
  Antiviral index: 3860
Human alphaherpesvirus 2
  ID50: 2 mg/L (≈ 6 µM)
[8]
  ID50: >400 mg/L
[6]
  IC50: 73 mg/L (≈ 219 µM)
Human alphaherpesvirus 1
  ID50: 0.007 mg/L (≈ 0.021 µM)

## O=c1[nH]c(=O)n([C@H]2C[C@H](O)[C@@H](CO)O2)cc1I [IDOXURIDINE]
L1210 [2]
  IC50: 4.3 mg/L (≈ 12.1 µM)
L1210 [10]
  IC50: 0.82 mg/L (≈ 2.32 µM)
L1210 [3]
  IC50: 61 mg/L (≈ 172 µM)
[4]
  IC50: 0.3 mg/L (≈ 0.847 µM)
[5]
  Antiviral index: 3
Human alphaherpesvirus 2
  ID50: 0.3 mg/L (≈ 0.847 µM)
[8]
  ID50: >400 mg/L
[6]
  IC50: 2 mg/L (≈ 5.65 µM)
Human alphaherpesvirus 1
  ID50: 0.1 mg/L (≈ 0.282 µM)

## Nc1nc(=O)n(COCCO)cc1[N+](=O)[O-]
L1210 [1]
  IC50: 374 mg/L (≈ 1620 µM)
L1210 [2]
  IC50: > 500 mg/L
L1210 [3]
  IC50: 71 mg/L (≈ 308 µM)
[4]
  IC50: > 400 mg/L
Human alphaherpesvirus 2
  ID50: >400 mg/L
[6]
  IC50: > 400 mg/L
Human alphaherpesvirus 1
  ID50: >400 mg/L

## Nc1nc(Cl)c2ncn(COCCO)c2n1
L1210 [1]
  IC50: > 1000 mg/L
L1210 [2]
  IC50: > 1000 mg/L
L1210 [3]
  IC50: 69 mg/L (≈ 283 µM)
[5]
  Antiviral index: 25
Human alphaherpesvirus 2
  ID50: 20 mg/L (≈ 82.1 µM)
[7]
  IC50: > 100 mg/L
[8]
  ID50: >400 mg/L
[6]
  IC50: 50 mg/L (≈ 205 µM)
Human alphaherpesvirus 1
  ID50: 2 mg/L (≈ 8.21 µM)

## Nc1ccn(COCCO)c(=O)n1
L1210 [1]
  IC50: > 1000 mg/L
L1210 [2]
  IC50: > 1000 mg/L
L1210 [3]
  IC50: 675 mg/L (≈ 3650 µM)
[4]
  IC50: > 400 mg/L
[5]
  Antiviral index: > 5
Human alphaherpesvirus 2
  ID50: 100 mg/L (≈ 540 µM)
[8]
  ID50: >400 mg/L
[6]
  IC50: > 400 mg/L
Human alphaherpesvirus 1
  ID50: 70 mg/L (≈ 378 µM)
